This assay has as its system immortalized megakaryocyte cell line. The experiment in a line: Test Example 1: platelet production, shake culturing. The format is cell-based. The note with it: for fold induction at 10 µM: Platelet, 144 h, read-out: Amount of platelet production (vs. Control); for Amount of platelet production (vs. Control): aryl hydrocarbon receptor antagonist Compound A5 0.1 μM added at cell seeding, counted after 6 days. As to the method: The immortalized megakaryocyte cell line obtained according to the method described in WO 2016/204256 was washed twice with D-PBS(−) and then cultured in medium not containing doxycycline to terminate forced expression (cultured under conditions where gene expression is OFF). Shake culturing at 100 rpm was performed in the following medium after the cells were seeded in a 125-mL polycarbonate Erlenmeyer flask (Corning #431143) at 25 mL/flask and a seeding density of 1×10^5 cells/mL. Culturing conditions were 37° C. and 5% CO2. The medium was obtained by adding the following components to IMDM serving as the basal medium (concentrations indicate final concentrations). • FBS 15% • L-Glutamine 2 mM • ITS 100-fold dilution • MTG 450 μM • Ascorbic acid 50 μg/mL • SCF 50 ng/mL • TA-316 0.1 μg/mL • ADAM inhibitor 15 μM • ROCK inhibitor 0.5 μM […] After culturing for 6 days in total, the number of platelets was measured. The measurement method was as follows. The same operation was performed for control. At 6 days after initiation of the culturing under conditions where gene expression was OFF, a part of the culture supernatant was collected, and suspended with the following antibody and Flow-Count Fluorospheres (Beckman Coulter #7547053) to perform staining. • APC-labeled anti-CD41 antibody (BioLegend #303710) • eFluor 450-labeled anti-CD42a antibody (eBioscience #48-0428-42) • PE-labeled anti-CD42b antibody (BioLegend #303906) At 30 minutes after staining, number of platelets (CD41, CD42a and CD42b-positive cells) was counted by using FACSVerse (manufactured by BD Japan) with Flow-Count Fluorospheres. The number of platelets was given as a percentage of the control.

The mark [1] stands for this setting: DMSO added at cell seeding (no AhR antagonist), compound 10 μM added at Day 3, platelets (CD41, CD42a, CD42b-positive) counted after 6 days.

Read-outs that look alike come from different tables or passages of the source.

For `COC(=O)n1cc(/C=C/C(=O)NCCc2ccccc2-c2ccccc2)c2cccc(OC)c21` [Example 43], the fold induction at 10 µM under setting [1] lay in the range of 1.5 to 6.5. In addition, the “Amount of platelet production (vs. Control)” value (from here on “Amount … (vs. Control)”) (compound 10 μM added at Day 3) is listed as “++ (not less than 6.5 times)”.

Regarding `COc1cccc2c(/C=C/C(=O)NCCc3ccccc3-c3ccccc3)cn(C(=O)c3ccccc3)c12` [Example 25, (E)-3-(1-benzoyl-7-methoxyindol-3-yl)-N-[2-(2-phenylphenyl)ethyl]prop-2-enamide], the fold induction at 10 µM under setting [1] is 1.5 to 6.5. The “Amount … (vs. Control)” value (compound 10 μM added at Day 3) is recorded as “++ (not less than 6.5 times)”.

On to `COc1cccc2c(/C=C/C(=O)NCCc3ccccc3-c3cccnn3)c[nH]c12` [Example 33], for which the fold induction at 10 µM under setting [1] lay in the range of 1.5 to 6.5. The “Amount … (vs. Control)” value (compound 10 μM added at Day 3) is on record as “++ (not less than 6.5 times)”.

As for `COC(=O)n1cc(/C=C/C(=O)NCCc2ccccc2-c2ncc(OC)cn2)c2cccc(OC)c21` [Example 55], the fold induction at 10 µM under setting [1] lay in the range of 1.5 to 6.5. Moreover, the “Amount … (vs. Control)” value (compound 10 μM added at Day 3) is recorded as “++ (not less than 6.5 times)”.

On to `COc1cccc2c(/C=C/C(=O)NCCc3ccccc3-c3ccc(F)cc3)c[nH]c12` [Example 28], for which the fold induction at 10 µM under setting [1] is 1.5 to 6.5. Further, for the setting “compound 10 μM added at Day 3”, the “Amount … (vs. Control)” value is “++ (not less than 6.5 times)”.

Turning to `COc1cccc2c(/C=C/C(=O)NCCc3ccccc3-c3ccccc3)cn(C)c12` [Example 23], the fold induction at 10 µM is 1.5 to 6.5. Moreover, where the note is “compound 10 μM added at Day 3”, the “Amount … (vs. Control)” value is on record as “++ (not less than 6.5 times)”.

For `COc1cccc2c(/C=C/C(=O)NCCc3ccsc3-c3ccccc3)c[nH]c12` [Example 22], the fold induction at 10 µM lay in the range of 1.5 to 6.5. For the setting “compound 10 μM added at Day 3”, the “Amount … (vs. Control)” value is on record as “++ (not less than 6.5 times)”.

For the molecule `COc1cccc2c(/C=C/C(=O)NCCc3sccc3-c3ccccc3)c[nH]c12` [Example 21], the fold induction at 10 µM is 1.5 to 6.5. The “Amount … (vs. Control)” value (compound 10 μM added at Day 3) is on record as “++ (not less than 6.5 times)”.

For `COc1cccc2c(/C=C/C(=O)NCCc3ccccc3-c3ncccn3)cn(C)c12` [Example 53], the fold induction at 10 µM under setting [1] fell in the range of 1.5 to 6.5. Also, the “Amount … (vs. Control)” value (compound 10 μM added at Day 3) was “++ (not less than 6.5 times)”.

On to `CCOc1ccsc1CCNC(=O)/C=C/c1c[nH]c2c(OC)cccc12` [Example 11], for which the fold induction at 10 µM under setting [1] is 1.5 to 6.5. Moreover, the “Amount … (vs. Control)” value (compound 10 μM added at Day 3) is reported as “++ (not less than 6.5 times)”.

Turning to `COc1cccc2c(/C=C/C(=O)NCCc3ccccc3-c3ncc(C)cn3)c[nH]c12` [Example 52], under setting [1], the fold induction at 10 µM is 1.5 to 6.5. Moreover, where the note is “compound 10 μM added at Day 3”, the “Amount … (vs. Control)” value was “++ (not less than 6.5 times)”.

With `COc1cccc2c(/C=C/C(=O)NCCc3ccccc3-c3ncc(F)cn3)c[nH]c12` [Example 51], under setting [1], the fold induction at 10 µM fell in the range of 1.5 to 6.5. Also, for the setting “compound 10 μM added at Day 3”, the “Amount … (vs. Control)” value was “++ (not less than 6.5 times)”.

Take `COc1cccc2c(/C=C/C(=O)NCCc3ccccc3-n3cccn3)c[nH]c12` [Example 37]: under setting [1], the fold induction at 10 µM lay within 1.5 to 6.5. For the same molecule, the “Amount … (vs. Control)” value (compound 10 μM added at Day 3) is given as “++ (not less than 6.5 times)”.

`COc1cccc2c(/C=C/C(=O)NCCc3ccccc3-c3ccccc3F)c[nH]c12` [Example 27]: the fold induction at 10 µM under setting [1] was 1.5 to 6.5. For the same molecule, under “compound 10 μM added at Day 3”, the “Amount … (vs. Control)” value is “++ (not less than 6.5 times)”.

As for `COc1cccc2c(/C=C/C(=O)NCCc3occc3-c3ccccc3)c[nH]c12` [Example 44], the fold induction at 10 µM under setting [1] lay within 1.5 to 6.5. In addition, the “Amount … (vs. Control)” value (compound 10 μM added at Day 3) is listed as “++ (not less than 6.5 times)”.

Regarding `CCOc1ccccc1CCNC(=O)/C=C/c1c[nH]c2c(OC)nccc12` [Example 36], the fold induction at 10 µM under setting [1] lay within 1.5 to 6.5. Further, the “Amount … (vs. Control)” value (compound 10 μM added at Day 3) was “++ (not less than 6.5 times)”.

Take `O=C(/C=C/c1c[nH]c2ccccc12)NCCc1ccccc1-c1ncccn1` [Example 47, (E)-3-(1H-indol-3-yl)-N-[2-(2-pyrimidin-2-ylphenyl)ethyl]prop-2-enamide]: the fold induction at 10 µM under setting [1] is 1.5 to 6.5. Moreover, the “Amount … (vs. Control)” value (compound 10 μM added at Day 3) was “++ (not less than 6.5 times)”.

As to `COC(=O)c1ccccc1CCNC(=O)/C=C/c1c[nH]c2c(OC)cccc12` [Example 8], the fold induction at 10 µM under setting [1] lay in the range of 1.5 to 6.5. In addition, the “Amount … (vs. Control)” value (compound 10 μM added at Day 3) is listed as “++ (not less than 6.5 times)”.

As to `COc1cccc2c(/C=C/C(=O)NCCc3ccccc3-c3nccs3)c[nH]c12` [Example 14], the fold induction at 10 µM lay within 1.5 to 6.5. Besides, the “Amount … (vs. Control)” value (compound 10 μM added at Day 3) was “++ (not less than 6.5 times)”.

Turning to `CCSc1ccccc1CCNC(=O)/C=C/c1cn(C(C)=O)c2c(OC)cccc12` [Example 9], the fold induction at 10 µM under setting [1] was 1.5 to 6.5. The “Amount … (vs. Control)” value (compound 10 μM added at Day 3) is recorded as “++ (not less than 6.5 times)”.

Regarding `CCNc1ccccc1CCNC(=O)/C=C/c1c[nH]c2c(OC)cccc12` [Example 5], the fold induction at 10 µM under setting [1] is 1.5 to 6.5. Also, the “Amount … (vs. Control)” value (compound 10 μM added at Day 3) was “++ (not less than 6.5 times)”.

In the case of `CCOc1ccccc1CCNC(=O)/C=C/n1cnc2c(OC)cccc21` [Example 38], the fold induction at 10 µM under setting [1] lay within 1.5 to 6.5. The “Amount … (vs. Control)” value (compound 10 μM added at Day 3) is “+ (the amount of platelets production increased by not less than 1.5 times and less than 6.5 times)”.

In the case of `COCCn1cc(/C=C/C(=O)NCCc2ccccc2-c2ncccn2)c2cccc(OC)c21` [Example 54], the fold induction at 10 µM under setting [1] fell in the range of 1.5 to 6.5. Further, where the note is “compound 10 μM added at Day 3”, the “Amount … (vs. Control)” value is reported as “++ (not less than 6.5 times)”.

As for `COc1ccc(-c2ccccc2)c(CCNC(=O)/C=C/c2c[nH]c3c(OC)cccc23)c1` [Example 13], the fold induction at 10 µM under setting [1] fell in the range of 1.5 to 6.5. The “Amount … (vs. Control)” value (compound 10 μM added at Day 3) is “++ (not less than 6.5 times)”.

Regarding `COc1cccc2c(/C=C/C(=O)NCCc3sccc3-c3ncccn3)c[nH]c12` [Example 45, (E)-3-(7-methoxy-1H-indol-3-yl)-N-[2-(3-pyrimidin-2-ylthiophen-2-yl)ethyl]prop-2-enamide], the fold induction at 10 µM under setting [1] lay within 1.5 to 6.5. For the same molecule, the “Amount … (vs. Control)” value (compound 10 μM added at Day 3) was “++ (not less than 6.5 times)”.

As for `COc1cccc2c(/C=C/C(=O)NCCc3ccccc3-c3ccncn3)c[nH]c12` [Example 34], the fold induction at 10 µM under setting [1] was 1.5 to 6.5. Also, the “Amount … (vs. Control)” value (compound 10 μM added at Day 3) is “++ (not less than 6.5 times)”.

Take `COc1cccc2c(/C=C/C(=O)NCCc3sccc3-c3cccs3)c[nH]c12` [Example 30]: the fold induction at 10 µM under setting [1] is 1.5 to 6.5. For the setting “compound 10 μM added at Day 3”, the “Amount … (vs. Control)” value was “++ (not less than 6.5 times)”.

Turning to `COc1cccc2c(/C=C/C(=O)NCCc3ccccc3-c3ccccc3)c[nH]c12` [Example 2], the fold induction at 10 µM was in the range of 1.5 to 6.5. Also, for the setting “compound 10 μM added at Day 3”, the “Amount … (vs. Control)” value is listed as “++ (not less than 6.5 times)”.

For `COc1cccc2c(/C=C/C(=O)NCCc3sccc3-c3ccco3)c[nH]c12` [Example 31], the fold induction at 10 µM under setting [1] lay in the range of 1.5 to 6.5. In addition, the “Amount … (vs. Control)” value (compound 10 μM added at Day 3) is “++ (not less than 6.5 times)”.

Regarding `COc1cccc2c(/C=C/C(=O)NCCc3ccccc3-c3ccccc3)cn(C(C)=O)c12` [Example 24, (E)-3-(1-acetyl-7-methoxyindol-3-yl)-N-[2-(2-phenylphenyl)ethyl]prop-2-enamide], under setting [1], the fold induction at 10 µM fell in the range of 1.5 to 6.5. For the same molecule, the “Amount … (vs. Control)” value (compound 10 μM added at Day 3) is recorded as “++ (not less than 6.5 times)”.

Consider `CCSc1ccccc1CCNC(=O)/C=C/c1c[nH]c2c(OC)cccc12` [Example 3], for which the fold induction at 10 µM under setting [1] lay in the range of 1.5 to 6.5. Further, the “Amount … (vs. Control)” value (compound 10 μM added at Day 3) is listed as “++ (not less than 6.5 times)”.

Values taken from patent US20240109842A1, “ACRYLAMIDE COMPOUNDS” (OTSUKA PHARMACEUTICAL CO., LTD., priority 2019, published 2024).
